In ChEMBL document CHEMBL3397005, “Synthesis and antiproliferative activity of novel polynuclear heterocyclic compounds derived from 2,3-diaminophenazine” (Eur J Med Chem, 2015):
In brackets after ≈: the same amount, converted by molar mass. Blank lines part the entries; values can stand above or below the compound they belong to. Activity calls are given as the source filed them. The calls are words filed in the database; no cut-off is given here.

How the values were obtained:
HCT-116 [1] = experiment: Inhibition of tyrosine kinase in human HCT116 cells at IC50 after 24 hrs by ELISA relative to control; assay type: cell-based
A549 [2] = experiment: Inhibition of tyrosine kinase in human A549 cells at IC50 after 24 hrs by ELISA relative to control; assay type: cell-based
A549 [3] = experiment: Antiproliferative activity against human A549 cells; assay type: functional, cell-based
[4] = (§1) Antiproliferative activity against human HCT116 cells; assay type: functional, cell-based; conditions: HCT-116
HCT-116 [5] = experiment: as §1; assay type: functional, cell-based

SMILES: CCOC(=O)c1nn(-c2ccccc2)c2nc3cc4nc5ccccc5nc4cc3n12
inhibition (HCT-116 [1]): 4%
inhibition (A549 [2]): 11%
IC50 (A549 [3]): 21 µg/mL (≈ 51.4 µM)
IC50 [4]: 11.2 µg/mL (≈ 27.4 µM)

SMILES: C(=C\c1nc2cc3nc4ccccc4nc3cc2[nH]1)/c1ccccc1
Activity (A549 [3]): inactive
Activity (HCT-116 [5]): inactive

SMILES: CCOC(=O)c1nn(-c2ccc(Cl)cc2)c2nc3cc4nc5ccccc5nc4cc3n12
inhibition (HCT-116 [1]): 37%
inhibition (A549 [2]): 50%
IC50 (A549 [3]): 17.6 µg/mL (≈ 39.7 µM)
IC50 [4]: 8.75 µg/mL (≈ 19.8 µM)

SMILES: O=c1[nH]c2cc3nc4ccccc4nc3cc2[nH]/c1=N/Nc1ccccc1
Activity (A549 [3]): inactive
Activity (HCT-116 [5]): inactive

SMILES: CCOC(=O)c1nn(-c2ccc(C)cc2)c2nc3cc4nc5ccccc5nc4cc3n12
inhibition (HCT-116 [1]): 18%
inhibition (A549 [2]): 14%
IC50 (A549 [3]): 19 µg/mL (≈ 45 µM)
IC50 [4]: 9.6 µg/mL (≈ 22.7 µM)

SMILES: c1ccc(-c2nc3cc4nc5ccccc5nc4cc3[nH]2)cc1
Activity (A549 [3]): inactive
Activity (HCT-116 [5]): inactive

SMILES: O=C1CC(=O)Nc2cc3nc4ccccc4nc3cc2N1
Activity (A549 [3]): inactive
Activity (HCT-116 [5]): inactive

SMILES: O=c1[nH]c2cc3nc4ccccc4nc3cc2[nH]c1=O
Activity (A549 [3]): inactive
Activity (HCT-116 [5]): inactive

SMILES: O=C(Nc1cc2nc3ccccc3nc2cc1NC(=O)c1ccccc1)c1ccccc1
inhibition (HCT-116 [1]): 0.5%
inhibition (A549 [2]): 1%
IC50 (A549 [3]): 23.6 µg/mL (≈ 56.4 µM)
IC50 [4]: 17.5 µg/mL (≈ 41.8 µM)

SMILES: c1ccc2nc3c(nc2c1)Nc1cc2nc4ccccc4nc2cc1N3
Activity (A549 [3]): inactive
Activity (HCT-116 [5]): inactive

SMILES: CCOC(=O)/C(=N/Nc1ccccc1)Nc1cc2nc3ccccc3nc2cc1N
Activity (A549 [3]): inactive
Activity (HCT-116 [5]): inactive

SMILES: CC1CC(=O)Nc2cc3nc4ccccc4nc3cc2N1 (stereo unspecified)
Activity (A549 [3]): inactive
Activity (HCT-116 [5]): inactive

SMILES: Nc1cc2nc3ccccc3nc2cc1N
inhibition (HCT-116 [1]): 72%
inhibition (A549 [2]): 80%
IC50 (A549 [3]): 8.8 µg/mL (≈ 41.9 µM)
IC50 [4]: 6 µg/mL (≈ 28.5 µM)

Continued, in another order:

IC50 (A549 [3]): 22 µg/mL (≈ 55.6 µM)
SMILES: CC1=NN(c2ccccc2)C(=O)C1/N=N/c1cc2nc3ccccc3nc2cc1N (stereo unspecified)
inhibition (HCT-116 [1]): 2%
inhibition (A549 [2]): 4%
IC50 [4]: 11.9 µg/mL (≈ 30.1 µM)

IC50 (A549 [3]): 9.8 µg/mL (≈ 25.6 µM)
SMILES: Nc1cc2nc3ccccc3nc2cc1/N=N/C1C(=O)ON=C1c1ccccc1 (stereo unspecified)
inhibition (HCT-116 [1]): 68%
inhibition (A549 [2]): 72%
IC50 [4]: 6.8 µg/mL (≈ 17.8 µM)

IC50 (A549 [3]): 21.7 µg/mL (≈ 98.5 µM)
SMILES: c1ccc2nc3cc4[nH]cnc4cc3nc2c1
inhibition (HCT-116 [1]): 3%
inhibition (A549 [2]): 5%
IC50 [4]: 11.4 µg/mL (≈ 51.8 µM)

IC50 (A549 [3]): 13.8 µg/mL (≈ 41.7 µM)
SMILES: Clc1cccc(-c2nc3cc4nc5ccccc5nc4cc3[nH]2)c1
inhibition (HCT-116 [1]): 17%
inhibition (A549 [2]): 15%
IC50 [4]: 7.9 µg/mL (≈ 23.9 µM)

IC50 (A549 [3]): 8.4 µg/mL (≈ 31.5 µM)
SMILES: CSc1nc2cc3nc4ccccc4nc3cc2[nH]1
inhibition (HCT-116 [1]): 84%
inhibition (A549 [2]): 85%
IC50 [4]: 5.2 µg/mL (≈ 19.5 µM)

IC50 (A549 [3]): 7.7 µg/mL (≈ 30.5 µM)
SMILES: S=c1[nH]c2cc3nc4ccccc4nc3cc2[nH]1
inhibition (HCT-116 [1]): 85%
inhibition (A549 [2]): 86%
IC50 [4]: 4.4 µg/mL (≈ 17.4 µM)

IC50 (A549 [3]): 27.6 µg/mL (≈ 90.7 µM)
SMILES: O=c1oc(=O)c2[nH]c3cc4nc5ccccc5nc4cc3[nH]c1=2
inhibition (HCT-116 [1]): 0.4%
inhibition (A549 [2]): 2%
IC50 [4]: 14.6 µg/mL (≈ 48 µM)

IC50 (A549 [3]): 8.4 µg/mL (≈ 32 µM)
SMILES: CCCc1nc2cc3nc4ccccc4nc3cc2[nH]1
inhibition (HCT-116 [1]): 64%
inhibition (A549 [2]): 70%
IC50 [4]: 6.5 µg/mL (≈ 24.8 µM)

IC50 (A549 [3]): 22.3 µg/mL (≈ 61.7 µM)
SMILES: CC1(C)CC(=O)C(/N=N/c2cc3nc4ccccc4nc3cc2N)C(=O)C1
inhibition (HCT-116 [1]): 0.6%
inhibition (A549 [2]): 2%
IC50 [4]: 13.9 µg/mL (≈ 38.5 µM)

IC50 (A549 [3]): 11.5 µg/mL (≈ 31.5 µM)
SMILES: Clc1ccc(-c2nc3cc4nc5ccccc5nc4cc3[nH]2)c(Cl)c1
inhibition (HCT-116 [1]): 12%
inhibition (A549 [2]): 16%
IC50 [4]: 6.8 µg/mL (≈ 18.6 µM)
